# Measurements published in the supplement of paper PMC10307832.
# Experiments:
# Test in all cases: relative viability (nuclei count vs DMSO), 5 days (fraction); higher = more cells survive
# [1] = compound: Cc1ccc(C(=O)Nc2cccc(C(F)(F)F)c2)cc1Nc1cncc(C(N)=O)c1 [ALW-II-49-7] + CC(C)C[C@H](NC(=O)[C@H](Cc1ccccc1)NC(=O)c1cnccn1)B(O)O [Bortezomib] (partner 0.002 µM)
# How it was run: (§1)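 After 5 days of treatment, lung cancer cells in 1536-well plates were fixed and stained in a single step (final 0.05% Triton X-100, 1% formaldehyde, 1 ug/ml Hoechst) and their nuclei counted on 4× images. Treatment had been applied by pin tool the day after seeding as one drug alone or as a fixed anchor-drug dose with five library-drug doses (not always all listed) in √10 steps. Relative viability is the nuclei count of treated wells divided by that of vehicle wells, and values are medians of duplicate plates.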
# [2] = compound: C1CC1C(=O)NC2=NNC3=C2C=CC(=C3)C4=CC(=CC=C4)C(=O)NC5CC5 [XMD13-2] + N=C(N)NC(=N)NCCc1ccccc1 [Phenformin] (partner 250 µM)
# How it was run: as §1
# [3] = compound: Cc1ccc(C(=O)Nc2cccc(C(F)(F)F)c2)cc1Nc1cncc(C(N)=O)c1 [ALW-II-49-7] + CCNC(=O)c1noc(-c2cc(C(C)C)c(O)cc2O)c1-c1ccc(CN2CCOCC2)cc1 [Luminespib] (partner 0.01 µM)
# How it was run: as §1
# [4] = compound: Cc1nc(Nc2ncc(C(=O)Nc3c(C)cccc3Cl)s2)cc(N2CCN(CCO)CC2)n1 [Dasatinib] + Nc1ncn([C@H]2C[C@H](O)[C@@H](CO)O2)c(=O)n1 [Decitabine] (partner 2 µM)
# How it was run: as §1
Cell Line,relative viability ([1]; first compound 0.08 µM),relative viability ([1]; first compound 0.253 µM),relative viability ([1]; first compound 0.8 µM),relative viability ([1]; first compound 2.53 µM),relative viability ([1]; first compound 8 µM),relative viability ([2]; first compound 0.05 µM),relative viability ([2]; first compound 0.1581 µM),relative viability ([2]; first compound 0.5 µM),relative viability ([2]; first compound 1.581 µM),relative viability ([2]; first compound 5 µM),relative viability ([3]; first compound 0.08 µM),relative viability ([3]; first compound 0.253 µM),relative viability ([3]; first compound 0.8 µM),relative viability ([3]; first compound 2.53 µM),relative viability ([3]; first compound 8 µM),relative viability ([4]; first compound 0.005 µM),relative viability ([4]; first compound 0.01581 µM),relative viability ([4]; first compound 0.05 µM),relative viability ([4]; first compound 0.1581 µM),relative viability ([4]; first compound 0.5 µM)
201T,1.1,1.13,1.09,1.08,1.06,0.462,0.45,0.397,0.467,0.464,1.06,0.907,1.07,0.993,1.09,0.834,0.795,0.802,0.646,0.416
A549,,,,,,0.547,0.152,0.153,0.12,0.232,,,,,,0.222,0.236,0.307,0.173,0.178
A-427,1.1,0.95,0.967,1.02,1.05,0.37,0.252,0.334,0.263,0.282,0.728,0.736,0.875,,0.769,0.616,0.513,0.543,0.491,0.493
ABC-1,0.414,0.34,0.31,0.318,0.287,0.219,0.24,0.242,0.267,0.26,0.472,0.535,0.718,0.355,0.496,1.31,0.953,1.18,1.06,0.975
BEN,0.851,0.828,0.789,,0.875,0.28,0.263,0.254,0.26,0.311,0.682,0.458,0.509,0.521,0.24,0.667,0.598,0.567,0.442,0.387
CAL-12T,0.923,,,0.978,0.721,0.575,0.538,0.61,0.538,0.665,0.193,0.293,0.517,0.285,0.38,,,,,
COR-L23,1.13,0.784,0.95,0.866,1.11,0.479,0.437,0.472,0.409,0.398,0.651,0.465,0.521,0.774,0.808,0.428,0.42,0.386,0.298,0.307
COR-L 105,0.802,0.681,0.826,0.587,0.767,0.589,0.532,0.455,0.506,0.452,0.745,0.646,0.845,0.72,0.879,0.599,0.604,0.478,0.445,0.297
Calu-6,1.18,0.95,1.04,0.785,0.885,,,,,,,,,,,,,,,
ChaGo-K-1,0.769,1.23,1.1,1.18,0.864,0.549,0.416,0.507,0.489,0.474,0.529,0.664,0.544,0.444,0.438,0.545,0.5,0.543,0.49,0.416
EBC-1,0.543,0.508,0.474,0.513,0.39,,,,,,,,,,,,,,,
EKVX,1.08,0.919,0.835,0.424,1.04,0.224,0.222,0.229,0.212,0.238,0.679,0.812,0.825,0.903,0.803,0.307,0.291,0.304,0.187,0.146
EMC-BAC-2,1.04,0.979,1.1,1.06,0.844,0.534,0.52,0.586,0.511,0.561,1.07,1.14,1.22,1.06,0.998,0.982,0.946,0.824,0.758,0.712
EPLC-272H,0.806,0.839,0.934,1.05,0.751,0.322,0.262,0.344,0.368,0.266,0.218,,0.324,0.312,0.276,0.39,0.392,0.381,0.295,0.153
H3255,0.974,0.841,0.933,0.679,0.625,0.21,0.378,0.409,0.364,0.358,1.02,0.851,0.972,0.876,0.648,0.66,0.573,0.568,0.493,0.311
HARA,1.06,1.17,0.994,1.22,1.26,0.477,0.438,0.474,0.44,0.485,0.465,0.655,0.545,0.833,1.17,0.578,0.47,0.549,0.305,0.221
HCC-15,0.957,0.92,0.959,1.1,0.952,0.609,0.523,0.546,0.456,0.407,0.172,0.302,0.319,0.304,0.391,0.609,0.606,0.496,0.428,0.466
HCC-44,0.84,0.89,0.885,0.846,0.889,0.217,0.161,0.213,0.269,0.183,,0.987,1.12,0.333,1.04,1.04,0.915,1.04,0.886,0.624
HCC-78,0.463,0.434,0.405,,0.491,0.831,0.755,0.661,0.671,0.684,,,,,,0.615,0.608,0.599,0.429,0.326
HCC-366,1.1,0.578,1.02,1.14,1.13,0.705,0.577,0.633,0.569,0.611,,,,,,0.354,0.262,0.247,0.188,0.215
HCC-827,1.13,1.03,1.03,1.1,1.03,0.443,0.366,0.405,0.478,0.392,0.795,0.587,0.678,0.683,1.76,0.35,0.271,0.309,0.224,0.159

Cell Line,relative viability ([1]; first compound 0.08 µM),relative viability ([1]; first compound 0.253 µM),relative viability ([1]; first compound 0.8 µM),relative viability ([1]; first compound 2.53 µM),relative viability ([1]; first compound 8 µM),relative viability ([2]; first compound 0.05 µM),relative viability ([2]; first compound 0.1581 µM),relative viability ([2]; first compound 0.5 µM),relative viability ([2]; first compound 1.581 µM),relative viability ([2]; first compound 5 µM),relative viability ([3]; first compound 0.08 µM),relative viability ([3]; first compound 0.253 µM),relative viability ([3]; first compound 0.8 µM),relative viability ([3]; first compound 2.53 µM),relative viability ([3]; first compound 8 µM),relative viability ([4]; first compound 0.005 µM),relative viability ([4]; first compound 0.01581 µM),relative viability ([4]; first compound 0.05 µM),relative viability ([4]; first compound 0.1581 µM),relative viability ([4]; first compound 0.5 µM)
HOP-62,0.852,1.06,1.02,0.369,0.965,0.671,0.687,0.837,0.595,0.553,0.959,0.883,0.75,0.702,0.735,0.218,0.227,0.261,0.23,0.191
IA-LM,1.12,0.621,0.509,0.217,0.161,,,,,,,,,,,,,,,
LC-2-ad,1.06,0.997,1.01,1.05,0.983,0.586,0.584,0.669,0.546,0.528,0.962,1.04,1.02,0.494,1,0.745,0.822,0.781,0.744,0.393
LCLC-97TM1,0.354,0.677,0.651,,0.218,0.441,0.441,0.425,0.492,0.459,0.772,0.689,0.807,0.869,0.656,0.203,0.224,0.283,0.177,0.144
LK-2,,,,,,0.607,0.496,0.455,0.334,0.392,,0.184,0.174,0.205,0.185,0.265,0.308,0.174,0.159,0.174
NCI-H358,,,,,,0.358,0.323,0.336,0.351,0.304,0.272,0.318,0.244,0.322,0.245,0.211,0.173,0.169,0.127,0.146
NCI-H522,,,,,,0.732,0.656,0.708,0.616,0.602,1.41,1.05,1.08,1.15,1.18,0.745,0.767,0.671,0.655,0.61
NCI-H1299,1.03,1.02,1.02,0.98,0.853,,,,,,,,,,,,,,,
NCI-H1395,,,,,,0.449,0.446,0.435,0.429,0.45,0.754,0.796,0.823,0.716,0.706,0.73,0.669,0.694,0.57,0.326
NCI-H1563,0.922,0.885,0.877,0.842,0.753,0.683,0.697,0.64,0.669,0.679,0.531,0.487,0.503,0.495,0.457,,,,,
NCI-H1623,,,,,,0.52,0.564,0.582,0.554,0.61,0.518,0.428,0.431,0.561,0.698,,,,,
NCI-H1648,,,,,,,,,,,,,,,,0.494,0.477,0.506,0.457,0.241
NCI-H1703,0.287,0.348,0.298,0.278,0.167,,,,,,,,,,,,,,,
NCI-H1793,,,,,,0.436,,0.409,0.393,0.36,0.146,0.197,0.195,0.177,0.175,0.504,0.427,0.295,0.328,0.323
NCI-H1944,,,,,,0.219,0.224,0.225,0.23,0.203,0.884,0.805,0.796,0.815,0.738,0.439,0.39,0.36,0.272,0.189
NCI-H2170,,,,,,0.482,0.433,0.424,0.399,0.398,0.73,0.372,0.418,0.826,0.784,0.439,0.422,0.392,0.344,0.225
NCI-H2228,1.06,0.636,0.975,0.915,1.16,0.346,0.37,0.295,0.313,0.362,0.255,0.14,0.16,0.145,0.215,,,,,
NCI-H2342,,,,,,0.567,0.602,0.597,0.642,0.651,0.641,0.705,0.676,0.751,0.775,0.685,0.598,0.632,0.51,0.321
SK-MES-1,,,,,,0.699,0.657,0.696,0.598,0.644,0.591,0.797,0.8,0.864,0.719,0.409,0.364,0.265,0.169,0.136
SW 900,,,,,,0.696,0.621,0.682,0.49,0.781,0.16,0.141,0.191,0.171,0.155,0.46,0.39,0.398,0.413,0.23
